Measured values taken from patent US20240268381A1, “Agricultural Chemical Formulation” (ExxonMobil Chemical Patents Inc., priority 2021, published 2024).

Tests used:
Assay type in all cases: physicochemical
[1] = Kinematic viscosity at 25° C. (ASTM D7042)
Procedure: (§1) The following properties of the solvents were tested: • Kinematic viscosity at 25° C. […] The funnel containing the mixture was inverted several times. The water and solvent phases were allowed to separate for 24 hours, resulting in two distinct phases. For water solubility in solvent, the solvent layer was transferred to a sample vial and was tested for water content according to ASTM E1064. For solvent solubility in water, the water layer was transferred to a sample vial and was tested by a gas chromatography test method for solvent content. Water content, water solubility, and solvent solubility in water were not tested for solvents C2-C5.

[2] = Water content of the solvents, Karl Fischer titration (ASTM E1064)
Procedure: as §1

[3] = Water solubility in solvent; conditions: 20 g solvent mixed with 20 g water, phases separated 24 hours, solvent layer tested
Procedure: as §1

[4] = Solvent solubility in water; conditions: 20 g solvent mixed with 20 g water, phases separated 24 hours, water layer tested by gas chromatography
Procedure: as §1

[5] = Solvency test, active ingredient trifluralin; conditions: wt % active ingredient in solution; highest concentration with no crystals at room temperature
Procedure: (§2) Solvency of solvents E1-E5 and C1-C8 was tested by dissolving various solid active ingredients in each solvent. The following pesticides were tested as active ingredients: trifluralin, fluroxypyr, bromoxynil octanoate, and 2-methyl-4-chlorophenoxyacetic acid (MCPA). Solvency was characterized by the weight ratio of an active ingredient in a solvent and was determined by adding 0.5 gram of active ingredient to a vial equipped with a stir bar and then charging the solvent to achieve a desired concentration. The vials were capped and placed into a water bath kept at a temperature 5 to 10° C. below the melting point of tested pesticide. The mixture was stirred in the vial for 24 hours. If the active ingredient was fully dissolved, the mixture was transferred to a room temperature water bath. If no active ingredient crystals were formed, a higher concentration of active ingredient was tested. Conversely, if active ingredient crystals were formed, a lower concentration of active ingredient was tested. Solubility was recorded as the highest concentration of active ingredient in the tested solvent with no formation of crystals. Concentrations were tested at a 5% interval. For example, if the active ingredient was dissolved at 50%, 55% would be the next concentration to be tested. Concentrations below 15 wt % were not tested.

[6] = Solvency test, active ingredient fluroxypyr; conditions: wt % active ingredient in solution; highest concentration with no crystals at room temperature
Procedure: as §2

[7] = Solvency test, active ingredient bromoxynil octanoate; conditions: wt % active ingredient in solution; highest concentration with no crystals at room temperature
Procedure: as §2

[8] = Solvency test, active ingredient MCPA; conditions: wt % active ingredient in solution; concentrations below 15 wt % not tested
Procedure: as §2

[9] = Density at 25° C. (ASTM D4052)
Pour point (ASTM D5950) = assay: Pour point (ASTM D5950)
Procedure: as §1

[10] = Hydrolytic stability in pH 4.5 or pH 8.5 buffer; conditions: 54° C., 14 days, 13C NMR; for Hydrolysis at pH 4.5: pH 4.5 buffer; for Hydrolysis at pH 8.5: pH 8.5 buffer
Procedure: Hydrolytic stability was characterized by mixing the tested solvent with an excess of pH 4.5 or pH 8.5 buffer in a vial which was placed in a heated water bath (54° C.). After 14 days, the vial was cooled to room temperature and the content was allowed to separate into aqueous and organic (solvent) phases. The solvent phase was transferred to a clean vial and sodium sulfate was added to remove residual water. The mixture was filtered to obtain the solvent filtrate which was analyzed by ^13C NMR to measure the amount of hydrolysis products (acid or alcohol), if any.
Hydrolytic stability for solvents E3, C1, C2, and C6-C8 was not tested. No hydrolysis is expected for aromatic solvent C2 due to lack of hydrolysable bonds.

KV25 [1] [cSt] | Water content [2] [ppm w/w] | Water solubility in solvent [3] [vol %] | Solvent solubility in water [4] [wt %] | Solvency, Trifluralin [5] [wt %] | Solvency, Fluroxypyr [6] [wt %] | Solvency, Bromoxynil Octanoate [7] [wt %] | Solvency, MCPA [8] [wt %] | Density at 25° C. [9] [g/mL] | Pour Point (Pour point (ASTM D5950)) [°C] | Hydrolysis at pH 4.5 [10] [%] | Hydrolysis at pH 8.5 [10] [%] | SMILES
2.15 | 722 | 0.369 | <0.001 | 72.9 | <15 | 67.5 | <15 | 0.867 | −102 | – | – | CC(=O)OCCCCCCC(C)C [Solvent C8, isononyl acetate]
3.38 | 499 | 0.386 | 0.008 | 72.6 | 61.3 | 73.0 | <15 | 0.992 | −81 | <1.0 | 3.7 | CCC(C)OC(=O)c1ccccc1 (centres unmarked) [Solvent E1, Secondary butyl benzoate]
11.96 | 102 | 0.394 | 0.007 | 66.8 | 64.8 | 68.3 | <15 | 1.042 | −54 | 2.7 | 1.7 | O=C(OC1CCCCC1)c1ccccc1 [Solvent E2, Cyclohexyl benzoate]
6.53 | 113 | 0.265 | <0.001 | 64.1 | 50.8 | 68.6 | <15 | 0.962 | – | – | – | CC(C)CCCCCOC(=O)c1ccccc1 [Solvent E3, Isooctyl benzoate]
3.40 | 232 | 0.422 | 0.010 | 69.5 | 66.0 | 68.8 | <15 | 0.966 | −90 | 0.3 | <1.0 | CC(C)(C)C(=O)OCc1ccccc1 [Solvent E4, Benzyl pivalate]
7.29 | 589 | 2.457 | 0.141 | 65.0 | 63.0 | 63.5 | – | 0.883 | −72 | <1.0 | <1.0 | CN(C)C(=O)CCCCCC(C)(C)C [Solvent E5, N,N-dimethyl neodecanamide]

Continued, compound first:

SMILES | KV25 [1] [cSt] | Water content [2] [ppm w/w] | Water solubility in solvent [3] [vol %] | Solvent solubility in water [4] [wt %] | Solvency, Trifluralin [5] [wt %] | Solvency, Fluroxypyr [6] [wt %] | Solvency, Bromoxynil Octanoate [7] [wt %] | Solvency, MCPA [8] [wt %] | Density at 25° C. [9] [g/mL] | Pour Point (Pour point (ASTM D5950)) [°C] | Hydrolysis at pH 4.5 [10] [%] | Hydrolysis at pH 8.5 [10] [%]
CCC(C)OC(=O)c1ccc(C(=O)OC(C)CC)o1 (centres unmarked) [Solvent C1, Di-sec butyl furan-2,5-dicarboxylate, reference compound] | 66.27 | 269 | 0.699 | 0.003 | 37.1 | <15 | 48.3 | <15 | 1.047 | – | – | –
CCCCOC(=O)c1ccccc1 [Solvent C3, Butyl benzoate, reference compound] | 3.11 | – | – | – | 62.8 | – | 69.7 | <15 | 1.001 | −36 | 0.5 | 6.7
CC(=O)OCc1ccccc1 [Solvent C4, Benzyl acetate, reference compound] | 2.20 | – | – | – | 61.2 | 59.8 | 72.9 | 15.1 | 1.051 | −90 | 22.5 | 6.8
CCCCCCCCCC(=O)N(C)C [Solvent C5, linear N,N-dimethyldecanamide, reference compound] | 5.33 | – | – | – | 62.4 | 62.2 | 60.2 | <15 | 0.876 | −6 | <1.0 | <1.0
CC(C)CCCCCCCOC(=O)c1ccccc1 [Solvent C6, isodecyl benzoate] | 9.60 | 332 | 0.173 | <0.001 | 54.5 | – | 62.1 | <15 | 0.949 | −69 | – | –
CC(=O)OCCCCCC(C)C [Solvent C7, isooctyl acetate] | 1.69 | 699 | 0.448 | 0.005 | 77.3 | 60.2 | 70.9 | <15 | 0.868 | −105 | 12.6 | <1.0
